# From ChEMBL document CHEMBL1201862, “PubChem BioAssay data set” (2004)
#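 Assay format: 96-well plates, 48-hour exposure. GI50 = concentration required for 50% inhibition of growth.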 Active and inactive are the calls of the source. No stated cut-off is given here; in the data, active = GI50 up to about 1.1 µM and inactive = higher.
# Columns and labels:
# Test in all cases: NCI tumour cell line growth inhibition, 48 h
# [1] = system: HT-29
# [2] = system: CAKI-1
# [3] = system: MOLT-4
# [4] = system: PC-3
# [5] = system: SK-MEL-28
# [6] = system: SK-MEL-5
# [7] = system: IGROV-1
# [8] = system: 786-0
# [9] = system: UO-31
# [10] = system: EKVX
# [11] = system: DU-145
# [12] = system: M14
# [13] = system: SR
# [14] = system: HCT-15
# [15] = system: UACC-257
# [16] = system: TK-10
# [17] = system: A549
# [18] = system: MCF7
# [19] = system: NCI-H23
# [20] = system: KM12
# [21] = system: OVCAR-3
# [22] = system: SK-OV-3
# [23] = system: T47D
# [24] = system: U-251
# [25] = system: BT-549
# [26] = system: UACC-62
# [27] = system: HL-60
# [28] = system: ACHN
# [29] = system: SN12C
# [30] = system: A498
# [31] = system: OVCAR-4
# [32] = system: MDA-MB-435
# [33] = system: OVCAR-8
# [34] = system: HOP-62
# [35] = system: HCT-116
# [36] = system: NCI-H522
# [37] = system: RXF 393
# [38] = system: OVCAR-5
# [39] = system: SW-620
# [40] = system: SK-MEL-2
# [41] = system: SNB-19
# [42] = system: K562
# [43] = system: COLO 205
# [44] = system: HOP-92
# [45] = system: NCI-H226
# [46] = system: SNB-75
# [47] = system: Hs-578T
# [48] = system: RPMI-8226
# [49] = system: NCI/ADR-RES
# [50] = system: MDA-N
# [51] = system: SF-295
# [52] = system: LOX IMVI
# [53] = system: MDA-MB-231
# [54] = system: NCI-H460
# [55] = system: SF-268
# [56] = system: Malme-3M
# [57] = system: SF-539
# [58] = system: HCC 2998
# [59] = system: CCRF-CEM
compound,measurement,setting,value
CC(C)NC1(C(N)=O)CCN(Cc2ccccc2)CC1,GI50,[1],> 100 µM (inactive)
same,GI50,[2],> 100 µM (inactive)
same,GI50,[3],> 100 µM (inactive)
same,GI50,[4],> 100 µM (inactive)
same,GI50,[5],> 100 µM (inactive)
same,GI50,[6],> 100 µM (inactive)
same,GI50,[7],> 100 µM (inactive)
same,GI50,[8],> 100 µM (inactive)
same,GI50,[9],> 100 µM (inactive)
same,GI50,[10],> 100 µM (inactive)
same,GI50,[11],> 100 µM (inactive)
same,GI50,[12],> 100 µM (inactive)
same,GI50,[13],> 100 µM (inactive)
same,GI50,[14],> 100 µM
same,GI50,[15],> 100 µM (inactive)
same,GI50,[16],> 100 µM (inactive)
same,GI50,[17],> 100 µM (inactive)
same,GI50,[18],> 100 µM (inactive)
same,GI50,[19],> 100 µM (inactive)
same,GI50,[20],> 100 µM (inactive)
same,GI50,[21],> 100 µM (inactive)
same,GI50,[22],> 100 µM (inactive)
same,GI50,[23],> 100 µM (inactive)
same,GI50,[24],> 100 µM (inactive)
same,GI50,[25],> 100 µM (inactive)
same,GI50,[26],> 100 µM (inactive)
same,GI50,[27],> 100 µM (inactive)
same,GI50,[28],> 100 µM (inactive)
same,GI50,[29],> 100 µM (inactive)
same,GI50,[30],> 100 µM (inactive)
same,GI50,[31],> 100 µM (inactive)
same,GI50,[32],> 100 µM (inactive)
same,GI50,[33],> 100 µM (inactive)
same,GI50,[34],> 100 µM (inactive)
same,GI50,[35],> 100 µM (inactive)
same,GI50,[36],> 100 µM (inactive)
same,GI50,[37],> 100 µM (inactive)
same,GI50,[38],> 100 µM (inactive)
same,GI50,[39],> 100 µM (inactive)
same,GI50,[40],> 100 µM (inactive)
same,GI50,[41],> 100 µM (inactive)
same,GI50,[42],> 100 µM (inactive)
same,GI50,[43],> 100 µM (inactive)
same,GI50,[44],> 100 µM (inactive)
same,GI50,[45],> 100 µM (inactive)
same,GI50,[46],> 100 µM (inactive)
same,GI50,[47],> 100 µM (inactive)
same,GI50,[48],> 100 µM (inactive)
same,GI50,[49],> 100 µM (inactive)
same,GI50,[50],> 100 µM (inactive)
same,GI50,[51],> 100 µM (inactive)
same,GI50,[52],> 100 µM (inactive)
same,GI50,[53],> 100 µM (inactive)
same,GI50,[54],> 100 µM (inactive)
same,GI50,[55],> 100 µM (inactive)
same,GI50,[56],> 100 µM (inactive)
same,GI50,[57],> 100 µM (inactive)
Cc1cccc2c(N)c3cccc(C(=O)NCC[N+](C)(C)Cc4ccc([N+](=O)[O-])s4)c3nc12,GI50,[1],4.07 µM (inactive)
same,GI50,[2],2.37 µM (inactive)
same,GI50,[58],11.1 µM (inactive)
same,GI50,[3],0.472 µM (active)
same,GI50,[4],7 µM (inactive)
same,GI50,[5],33 µM (inactive)
same,GI50,[6],11.6 µM (inactive)
same,GI50,[7],2.85 µM (inactive)
same,GI50,[8],1.98 µM (inactive)
same,GI50,[9],11.4 µM (inactive)
same,GI50,[10],14.1 µM (inactive)
same,GI50,[11],9.1 µM (inactive)
same,GI50,[12],16.5 µM (inactive)
same,GI50,[13],1.19 µM (inactive)
same,GI50,[14],3.74 µM
same,GI50,[15],23.7 µM (inactive)
same,GI50,[16],20.4 µM (inactive)
same,GI50,[17],0.404 µM (active)
same,GI50,[18],2.23 µM (inactive)
same,GI50,[19],4.51 µM (inactive)
same,GI50,[20],9.06 µM (inactive)
same,GI50,[21],9.04 µM (inactive)
same,GI50,[22],19.6 µM (inactive)
same,GI50,[23],13.6 µM (inactive)
same,GI50,[24],2.91 µM (inactive)
same,GI50,[59],1.85 µM (inactive)
same,GI50,[25],33.5 µM (inactive)
same,GI50,[26],16.5 µM (inactive)
same,GI50,[28],2.69 µM (inactive)
same,GI50,[29],0.424 µM (active)
same,GI50,[30],4.65 µM (inactive)
same,GI50,[31],8.15 µM (inactive)
same,GI50,[32],21.9 µM (inactive)
same,GI50,[33],9.29 µM (inactive)
same,GI50,[34],4.21 µM (inactive)
same,GI50,[35],3.83 µM (inactive)
same,GI50,[36],5.28 µM (inactive)
same,GI50,[37],8.36 µM (inactive)
same,GI50,[38],11.9 µM (inactive)
same,GI50,[39],5.4 µM (inactive)
same,GI50,[40],41 µM (inactive)
same,GI50,[41],3.22 µM (inactive)
same,GI50,[42],2.88 µM (inactive)
same,GI50,[43],4.9 µM (inactive)
same,GI50,[44],16 µM (inactive)
same,GI50,[45],6.68 µM (inactive)
same,GI50,[46],17.2 µM (inactive)
same,GI50,[47],8.51 µM (inactive)
same,GI50,[48],2.62 µM (inactive)
same,GI50,[49],43.8 µM (inactive)
same,GI50,[50],16 µM (inactive)
same,GI50,[51],9.64 µM (inactive)
same,GI50,[52],3.84 µM (inactive)
same,GI50,[53],4.42 µM (inactive)
same,GI50,[54],1.57 µM (inactive)
same,GI50,[55],4.78 µM (inactive)
same,GI50,[56],8.2 µM (inactive)
same,GI50,[57],4.93 µM (inactive)
